Test results published in ChEMBL document CHEMBL1629455, “Discovery of a novel class of biphenyl pyrazole sodium channel blockers for treatment of neuropathic pain” (Bioorg Med Chem Lett, 2010).

Legend:
[1] = target: T1, Sodium channel protein type 9 subunit alpha (Homo sapiens, UniProt Q15858); test: Inhibition of human Nav1.7 by VIPR assay
Target sequence in this assay (Q15858 whole entry): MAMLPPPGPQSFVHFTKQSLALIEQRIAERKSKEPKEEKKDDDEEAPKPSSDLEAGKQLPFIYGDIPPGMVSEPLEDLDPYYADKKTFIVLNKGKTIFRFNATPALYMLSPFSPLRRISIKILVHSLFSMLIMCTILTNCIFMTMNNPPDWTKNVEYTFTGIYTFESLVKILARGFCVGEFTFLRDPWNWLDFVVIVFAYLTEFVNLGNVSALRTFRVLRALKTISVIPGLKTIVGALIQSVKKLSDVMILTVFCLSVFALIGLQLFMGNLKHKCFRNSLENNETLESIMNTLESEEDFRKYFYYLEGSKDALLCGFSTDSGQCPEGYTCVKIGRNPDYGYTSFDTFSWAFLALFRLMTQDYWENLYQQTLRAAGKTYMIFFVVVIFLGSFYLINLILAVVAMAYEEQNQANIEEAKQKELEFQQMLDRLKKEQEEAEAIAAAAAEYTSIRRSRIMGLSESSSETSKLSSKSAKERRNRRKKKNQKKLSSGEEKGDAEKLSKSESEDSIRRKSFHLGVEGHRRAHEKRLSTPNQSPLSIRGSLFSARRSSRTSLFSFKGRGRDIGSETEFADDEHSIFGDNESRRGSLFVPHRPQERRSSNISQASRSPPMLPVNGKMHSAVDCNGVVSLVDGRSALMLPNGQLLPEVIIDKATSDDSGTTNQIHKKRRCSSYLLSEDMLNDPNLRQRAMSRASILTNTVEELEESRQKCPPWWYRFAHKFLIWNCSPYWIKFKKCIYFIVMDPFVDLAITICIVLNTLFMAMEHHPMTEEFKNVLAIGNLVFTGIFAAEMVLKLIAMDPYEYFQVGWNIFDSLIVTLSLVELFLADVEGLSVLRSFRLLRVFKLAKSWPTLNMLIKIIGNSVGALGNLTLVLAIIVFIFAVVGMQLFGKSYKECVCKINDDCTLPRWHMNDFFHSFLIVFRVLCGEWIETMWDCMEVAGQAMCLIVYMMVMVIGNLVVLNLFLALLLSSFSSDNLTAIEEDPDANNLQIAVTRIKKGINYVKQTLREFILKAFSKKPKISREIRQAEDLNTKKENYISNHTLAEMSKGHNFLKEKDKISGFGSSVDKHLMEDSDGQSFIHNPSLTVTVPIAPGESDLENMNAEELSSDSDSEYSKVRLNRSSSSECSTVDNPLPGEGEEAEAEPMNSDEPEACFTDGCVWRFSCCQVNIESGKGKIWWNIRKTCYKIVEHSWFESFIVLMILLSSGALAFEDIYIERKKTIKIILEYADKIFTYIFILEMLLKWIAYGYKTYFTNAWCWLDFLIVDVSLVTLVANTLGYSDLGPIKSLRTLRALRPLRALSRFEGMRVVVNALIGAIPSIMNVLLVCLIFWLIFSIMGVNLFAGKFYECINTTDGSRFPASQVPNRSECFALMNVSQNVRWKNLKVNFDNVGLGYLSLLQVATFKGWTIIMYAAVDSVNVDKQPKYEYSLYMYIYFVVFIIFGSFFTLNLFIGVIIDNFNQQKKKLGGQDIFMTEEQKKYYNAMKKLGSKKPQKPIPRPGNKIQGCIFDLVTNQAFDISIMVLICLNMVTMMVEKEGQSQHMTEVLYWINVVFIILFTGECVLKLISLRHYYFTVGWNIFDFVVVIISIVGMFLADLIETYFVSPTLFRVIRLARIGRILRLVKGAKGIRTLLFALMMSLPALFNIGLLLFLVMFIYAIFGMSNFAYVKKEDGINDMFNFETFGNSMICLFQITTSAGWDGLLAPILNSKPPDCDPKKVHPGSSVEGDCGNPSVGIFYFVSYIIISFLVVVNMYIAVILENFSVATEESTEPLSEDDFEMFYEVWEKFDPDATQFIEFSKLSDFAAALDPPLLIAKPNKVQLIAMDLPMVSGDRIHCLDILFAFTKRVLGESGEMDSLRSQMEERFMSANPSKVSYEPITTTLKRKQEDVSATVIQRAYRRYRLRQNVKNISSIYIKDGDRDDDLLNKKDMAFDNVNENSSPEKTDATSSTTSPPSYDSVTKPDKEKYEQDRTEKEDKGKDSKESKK

hERG (KCNH2) = hERG (KCNH2) (Homo sapiens, UniProt Q12809); test: Inhibition of MK-0499 binding to human ERG at 10 uM; details: probe MK-0499
[2] = target: Sodium channel protein type 10 subunit alpha (Homo sapiens, UniProt Q9Y5Y9); test: Inhibition of human Nav1.8 by VIPR assay
Sodium channel protein type 10 subunit alpha, sequence (Q9Y5Y9 whole entry): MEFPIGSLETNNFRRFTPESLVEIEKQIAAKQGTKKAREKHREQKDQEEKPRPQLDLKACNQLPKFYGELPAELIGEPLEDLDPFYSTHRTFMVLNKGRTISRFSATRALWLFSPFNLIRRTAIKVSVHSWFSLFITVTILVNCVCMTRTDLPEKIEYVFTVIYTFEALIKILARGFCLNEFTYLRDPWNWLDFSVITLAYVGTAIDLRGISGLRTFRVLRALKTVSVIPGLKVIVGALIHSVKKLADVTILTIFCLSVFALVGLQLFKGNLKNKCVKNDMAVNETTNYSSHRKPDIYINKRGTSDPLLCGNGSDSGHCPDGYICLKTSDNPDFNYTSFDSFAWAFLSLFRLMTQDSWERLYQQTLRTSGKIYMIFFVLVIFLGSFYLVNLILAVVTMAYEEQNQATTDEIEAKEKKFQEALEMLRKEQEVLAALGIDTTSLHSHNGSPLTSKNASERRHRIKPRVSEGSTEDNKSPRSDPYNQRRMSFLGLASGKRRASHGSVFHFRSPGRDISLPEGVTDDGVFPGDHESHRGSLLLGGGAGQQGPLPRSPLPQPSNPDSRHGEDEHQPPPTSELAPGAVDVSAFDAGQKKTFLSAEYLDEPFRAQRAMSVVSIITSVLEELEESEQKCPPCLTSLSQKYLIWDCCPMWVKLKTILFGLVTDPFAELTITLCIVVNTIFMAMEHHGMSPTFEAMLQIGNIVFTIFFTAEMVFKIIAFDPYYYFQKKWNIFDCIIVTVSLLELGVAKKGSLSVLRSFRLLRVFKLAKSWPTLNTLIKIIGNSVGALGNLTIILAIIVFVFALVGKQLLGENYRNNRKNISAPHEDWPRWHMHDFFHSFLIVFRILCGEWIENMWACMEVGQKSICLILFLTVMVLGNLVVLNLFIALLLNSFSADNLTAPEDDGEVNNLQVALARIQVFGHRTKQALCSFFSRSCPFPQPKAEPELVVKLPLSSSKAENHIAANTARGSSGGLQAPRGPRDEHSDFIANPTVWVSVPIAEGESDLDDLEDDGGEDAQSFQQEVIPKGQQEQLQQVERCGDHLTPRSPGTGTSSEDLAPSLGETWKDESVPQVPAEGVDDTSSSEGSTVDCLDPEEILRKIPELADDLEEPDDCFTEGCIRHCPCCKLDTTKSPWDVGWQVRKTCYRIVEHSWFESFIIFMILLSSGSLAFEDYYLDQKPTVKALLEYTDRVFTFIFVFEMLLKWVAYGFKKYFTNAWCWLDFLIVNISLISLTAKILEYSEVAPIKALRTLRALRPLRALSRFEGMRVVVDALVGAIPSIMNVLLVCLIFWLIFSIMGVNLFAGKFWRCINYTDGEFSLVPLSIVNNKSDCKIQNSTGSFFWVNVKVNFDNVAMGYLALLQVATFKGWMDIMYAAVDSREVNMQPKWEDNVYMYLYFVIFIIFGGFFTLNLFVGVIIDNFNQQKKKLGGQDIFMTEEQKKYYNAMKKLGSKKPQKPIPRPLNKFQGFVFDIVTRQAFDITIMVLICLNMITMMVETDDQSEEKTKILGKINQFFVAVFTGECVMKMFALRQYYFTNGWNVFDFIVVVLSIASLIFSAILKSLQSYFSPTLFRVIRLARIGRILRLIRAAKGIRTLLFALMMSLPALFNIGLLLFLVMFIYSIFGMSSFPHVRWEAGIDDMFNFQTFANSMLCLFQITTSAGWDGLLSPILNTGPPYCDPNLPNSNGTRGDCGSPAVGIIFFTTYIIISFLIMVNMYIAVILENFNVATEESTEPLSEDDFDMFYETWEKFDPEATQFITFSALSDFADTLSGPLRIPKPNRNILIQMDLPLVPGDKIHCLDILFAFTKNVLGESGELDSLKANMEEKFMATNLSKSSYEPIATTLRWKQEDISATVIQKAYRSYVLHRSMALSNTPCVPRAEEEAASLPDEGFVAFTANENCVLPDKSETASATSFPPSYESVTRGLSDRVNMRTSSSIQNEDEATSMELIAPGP

Rattus norvegicus [3] = test: Antiallodynic activity in rat spinal nerve ligation model of neuropathic pain assessed as reversal of allodynia at 10 mg/kg, po after 4 hrs; format: functional
Rattus norvegicus [4] = test: Antiallodynic activity in rat spinal nerve ligation model of neuropathic pain assessed as reversal of allodynia at 10 mg/kg, po after 2 hrs; format: functional
[5] = target: T1, Sodium channel protein type 9 subunit alpha; test: Inhibition of human Nav1.7 at 10 uM by VIPR assay
Target sequence in this assay (Q15858 whole entry, looked up): as the sequence (Q15858 whole entry) above

hERG (KCNH2), sequence (Q12809 whole entry): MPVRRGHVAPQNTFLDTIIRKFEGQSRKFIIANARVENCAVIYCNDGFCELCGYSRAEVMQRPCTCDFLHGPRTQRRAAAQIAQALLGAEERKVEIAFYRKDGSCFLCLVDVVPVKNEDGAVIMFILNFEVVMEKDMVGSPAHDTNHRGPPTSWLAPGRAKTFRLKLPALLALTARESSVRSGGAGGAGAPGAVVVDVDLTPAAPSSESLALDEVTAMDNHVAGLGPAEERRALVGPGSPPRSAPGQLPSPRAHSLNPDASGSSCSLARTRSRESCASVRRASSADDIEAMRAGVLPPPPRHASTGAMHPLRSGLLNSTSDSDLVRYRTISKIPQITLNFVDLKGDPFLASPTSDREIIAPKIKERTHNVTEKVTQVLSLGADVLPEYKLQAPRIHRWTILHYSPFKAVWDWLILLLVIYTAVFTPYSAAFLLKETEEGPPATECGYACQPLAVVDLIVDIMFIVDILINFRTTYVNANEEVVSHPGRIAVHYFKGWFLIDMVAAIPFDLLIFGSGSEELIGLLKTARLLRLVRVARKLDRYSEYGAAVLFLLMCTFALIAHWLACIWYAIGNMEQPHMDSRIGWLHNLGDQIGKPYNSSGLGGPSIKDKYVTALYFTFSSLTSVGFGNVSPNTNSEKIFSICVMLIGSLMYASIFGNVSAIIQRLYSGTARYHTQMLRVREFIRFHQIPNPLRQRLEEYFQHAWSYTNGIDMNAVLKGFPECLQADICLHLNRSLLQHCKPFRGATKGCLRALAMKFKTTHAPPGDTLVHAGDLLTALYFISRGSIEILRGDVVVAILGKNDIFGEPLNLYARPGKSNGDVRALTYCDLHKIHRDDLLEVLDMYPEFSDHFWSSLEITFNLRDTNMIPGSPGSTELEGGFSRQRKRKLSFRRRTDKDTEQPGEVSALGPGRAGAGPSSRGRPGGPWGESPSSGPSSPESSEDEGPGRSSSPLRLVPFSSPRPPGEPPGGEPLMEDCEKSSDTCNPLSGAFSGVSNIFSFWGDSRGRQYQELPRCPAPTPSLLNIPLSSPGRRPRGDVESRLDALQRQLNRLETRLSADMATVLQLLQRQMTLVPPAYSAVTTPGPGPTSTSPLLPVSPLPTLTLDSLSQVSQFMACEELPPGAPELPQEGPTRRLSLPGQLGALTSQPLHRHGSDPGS

Row | SMILES | IC50 [1] | inhibition at 10 µM (hERG (KCNH2)) | Ki [1] | IC50 [2] | Activity (Rattus norvegicus [3]) | Activity (Rattus norvegicus [4]) | inhibition [5]
1 | CCOC(=O)c1cc(C(N)=O)nn1-c1cccc(-c2ccccc2OC(F)(F)F)c1 | 0.01 µM | 72% |  |  |  |  | 
2 | NC(=O)c1nc(-c2cccc(-c3ccccc3OC(F)(F)F)c2)cs1 |  |  | 0.23 µM |  |  |  | 
3 | NC(=O)c1cc(C(N)=O)n(-c2cccc(-c3cc(F)ccc3OCC(F)(F)C(F)(F)F)c2)n1 | 0.046 µM |  |  | 0.149 µM | 9% | 25% | 
4 | NC(=O)c1cc(C(N)=O)n(-c2cccc(-c3ccccc3C(F)(F)F)c2)n1 | 0.155 µM |  |  | 0.915 µM | 2% | 9% | 
5 | Cc1c(C(N)=O)c(C(N)=O)nn1-c1cccc(-c2ccccc2OC(F)(F)F)c1 | 0.185 µM | 15% |  |  | 8% | 16% | 
6 | NC(=O)c1cc(C(N)=O)n(-c2cccc(-c3c(F)cccc3OC(F)(F)F)c2)n1 | 0.106 µM |  |  | 0.802 µM | 9% | 15% | 
7 | NC(=O)c1cc(C(N)=O)n(-c2cccc(-c3cccc(OC(F)(F)F)c3OCC(F)(F)C(F)(F)F)c2)n1 | 0.064 µM |  |  | 0.203 µM | 3% | 6% | 
8 | NC(=O)c1cc(C(N)=O)n(-c2cccc(-c3ccc(F)cc3OCC(F)(F)C(F)(F)F)c2)n1 | 0.106 µM |  |  |  | 8% | 28% | 
9 | NC(=O)c1cc(C(N)=O)n(-c2cccc(-c3cc(C(F)(F)F)ccc3OC(F)(F)F)c2)n1 | 0.325 µM |  |  | 1.18 µM | 6% | 29% | 
10 | NC(=O)c1cc(C(N)=O)n(-c2cccc(-c3cccc(Cl)c3Cl)c2)n1 | 0.195 µM |  |  |  | 7% | 15% | 
11 | NC(=O)c1cc(C(N)=O)n(-c2cccc(-c3cccc(C(F)(F)F)c3OCC(F)(F)C(F)(F)F)c2)n1 | 0.147 µM |  |  | 0.299 µM | 8% | 22% | 
12 | CCNC(=O)c1cc(C(N)=O)nn1-c1cccc(-c2ccccc2OC(F)(F)F)c1 | 0.029 µM | 20% |  |  |  |  | 
13 | CCNC(=O)c1cc(C(=O)NCC)n(-c2cccc(-c3ccccc3OC(F)(F)F)c2)n1 |  | 27% |  |  |  |  | 1%
14 | NC(=O)c1cn(-c2cccc(-c3ccccc3OC(F)(F)F)c2)nc1C(N)=O | 0.049 µM | 1% |  |  | 8% | 18% | 
15 | NC(=O)c1cc(C(N)=O)n(-c2cccc(-c3ccccc3OC(F)(F)F)c2)n1 | 0.132 µM | 21% |  | 0.554 µM | 19% | 35% | 
16 | Cc1cc(C(N)=O)nn1-c1cccc(-c2ccc(C(F)(F)F)cc2C(F)(F)F)c1 |  |  | 0.34 µM |  |  |  | 
17 | NC(=O)c1nn(-c2cccc(-c3ccccc3OC(F)(F)F)c2)c(C(N)=O)c1C(N)=O | 0.115 µM | 49% |  |  |  |  | 
18 | NC(=O)c1cc(C(N)=O)n(-c2ccc(F)c(-c3ccccc3OC(F)(F)F)c2)n1 | 0.477 µM |  |  |  |  |  | 
19 | Cc1cc(C(N)=O)nn1-c1cccc(-c2ccccc2OC(F)(F)F)c1 |  | 69% |  |  | 11% | 33% | 
20 | NC(=O)c1cc(C(N)=O)n(-c2cccc(-c3c(C(F)(F)F)cccc3C(F)(F)F)c2)n1 | 0.715 µM |  |  |  |  |  | 
21 | NC(=O)c1cc(C(N)=O)n(-c2cccc(-c3cccc(OC(F)(F)F)c3F)c2)n1 | 0.282 µM |  |  | 1.51 µM | 8% | 28% | 
